Source: ChEMBL document CHEMBL1123767, “High-affinity leukotriene receptor antagonists. Synthesis and pharmacological characterization of 2-hydroxy-3-[(2-carboxyethyl)thio]-3-[2-(8-phenyloctyl)phenyl] propanoic acid” (J Med Chem, 1987)

Key:
[1] = biological target: T1, Cysteinyl leukotriene receptor 1 (Cavia porcellus, UniProt Q2NNR5); assay: Binding affinity against Cysteinyl leukotriene D4 receptor in guinea pig lung membranes using [3H]LTD4 as the radioligand.; type: cell membranes, Membrane
T1 sequence (Q2NNR5 whole entry): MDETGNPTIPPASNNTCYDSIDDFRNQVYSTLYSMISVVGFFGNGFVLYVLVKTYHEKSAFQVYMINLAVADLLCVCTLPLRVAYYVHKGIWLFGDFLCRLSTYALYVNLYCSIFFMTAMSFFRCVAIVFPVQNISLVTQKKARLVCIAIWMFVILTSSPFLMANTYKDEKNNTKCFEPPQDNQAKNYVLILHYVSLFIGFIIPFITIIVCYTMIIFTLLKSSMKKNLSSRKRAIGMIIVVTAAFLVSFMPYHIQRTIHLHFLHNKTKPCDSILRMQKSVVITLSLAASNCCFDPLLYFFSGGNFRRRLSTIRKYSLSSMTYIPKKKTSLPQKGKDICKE

Cavia porcellus [2] = species on record: Cavia porcellus; assay: In vitro ability to antagonize LTD4-induced contractions of guinea pig smooth muscle (trachea) at 10 uM concentration.; type: functional
[3] = biological target: T2, Cysteinyl leukotriene receptor 1 (Cavia porcellus) (UniProt Q2NNR5); assay: (§1) In vitro ability to antagonize LTC4-induced contractions of guinea pig smooth muscle (trachea) at 10 uM concentration.; type: functional, tissue-based
T2 sequence (whole entry): T1 sequence (Q2NNR5 whole entry)

Cavia porcellus [4] = species on record: Cavia porcellus; assay: as §1; type: functional
Homo sapiens [5] = species on record: Homo sapiens; assay: In vitro ability to antagonize LTC4-induced contractions of human smooth muscle (bronchus) at 10 uM concentration.; type: functional
Homo sapiens [6] = species on record: Homo sapiens; assay: Ability to antagonize LTD4-induced contractions of human airway smooth muscle (bronchus) at 10 uM concentration; type: functional
Cavia porcellus [7] = species on record: Cavia porcellus; assay: In vitro ability to antagonize LTD4-induced contractions of guinea pig smooth muscle (trachea) at 3 uM concentration.; type: functional
Homo sapiens [8] = species on record: Homo sapiens; assay: In vitro ability to antagonize LTC4-induced contractions of human smooth muscle (bronchus) at 3 uM concentration.; type: functional
Homo sapiens [9] = species on record: Homo sapiens; assay: In vitro ability to antagonize LTD4-induced contractions of human airway smooth muscle (bronchus) at 3 uM concentration; type: functional
[10] = biological target: T3, Cysteinyl leukotriene receptor 1 (Homo sapiens, UniProt Q9Y271); assay: Binding affinity against Cysteinyl leukotriene D4 receptor in human lung membranes using [3H]LTD4 as the radioligand.; type: cell membranes, Membrane
T3 sequence (Q9Y271 whole entry): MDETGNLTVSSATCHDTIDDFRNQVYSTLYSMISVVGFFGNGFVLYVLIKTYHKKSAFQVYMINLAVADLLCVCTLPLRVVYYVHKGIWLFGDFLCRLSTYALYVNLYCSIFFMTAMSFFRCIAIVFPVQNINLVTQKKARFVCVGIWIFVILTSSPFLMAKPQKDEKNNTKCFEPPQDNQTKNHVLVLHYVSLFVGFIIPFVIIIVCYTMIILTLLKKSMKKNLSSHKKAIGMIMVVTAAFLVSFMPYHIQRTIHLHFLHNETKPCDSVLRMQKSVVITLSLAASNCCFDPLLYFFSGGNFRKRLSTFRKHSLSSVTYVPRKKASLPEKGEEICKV

[11] = biological target: T2, Cysteinyl leukotriene receptor 1 (Cavia porcellus); settings: Trachea, 3 uM
Description: In vitro ability to antagonize LTC4-induced contractions of guinea pig smooth muscle (trachea) at 3 uM concentration.

In the case of `O=C(O)CCS[C@@H](c1ccccc1CCCCCCCCc1ccccc1)[C@H](O)C(=O)O`, the Ki [1] is reported as 180 nM and the pKb (Cavia porcellus [2]) is reported as 6.1.

`O=C(O)CCSC(CC(=O)O)c1ccccc1CCCCCCCCc1ccccc1` (stereo not given) gave a Ki [1] of 60 nM, a pKb (Cavia porcellus [2]) of 7 and a pKb [3] of 5.1.

Work on `CCCc1c(OCC(O)COc2ccc3c(=O)cc(C(=O)O)oc3c2CCC)ccc(C(C)=O)c1O` (stereo not given) [FPL-55712] yielded a pKb (Cavia porcellus [2]) of 6.7, a pKb (Cavia porcellus [4]) of 4.9 and a pKb (Homo sapiens [5]) of 6.4. The pKb (Homo sapiens [6]) was 5.8.

For `O=C(O)CCS[C@H](c1ccccc1CCCCCCCCc1ccccc1)[C@@H](O)C(=O)O` [POBILUKAST], the Ki [1] was 5 nM, the pKb (Cavia porcellus [7]) was 8.6 and the pKb (Homo sapiens [8]) was 8.3. The pKb (Homo sapiens [9]) was 8.2, the Ki [10] was 10 nM and the pKb [11] was under 5.4.
